According to patent US8952024B2, “Herbicidal pyrimidone derivatives” (E I du Pont de Nemours and Company, priority 2009, dated 2015):

Assays:
Assay type in all cases: in vivo
rice (Oryza sativa) = assay: Test B flooded paddy test; conditions: for Plant response rating, Flood, Rice: 250 g ai/ha, flooded paddy test, visual rating on 0 to 100 scale (0 no effect, 100 complete control) after 13 to 15 days; for Plant response rating, Rice: Flood (flooded paddy test), 13 to 15 days; for Rice plant response rating: Flood, 31 g ai/ha, scale 0 to 100 (0 no effect, 100 complete control)
Summary of the method: (§1)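 Ratings are visual, 0–100 (100 = complete control), taken versus untreated controls 13 to 15 days after treatment in the greenhouse. Compound went straight into paddy water held 3 cm above soil, applied to 2-leaf-stage plants of four species.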

[1] = system: umbrella sedge (Cyperus difformis); assay: Test B flooded paddy test; conditions: for Plant response rating, Flood, Sedge, Umbrella: 250 g ai/ha, flooded paddy test, visual rating on 0 to 100 scale (0 no effect, 100 complete control) after 13 to 15 days; for Plant response rating, Sedge, Umbrella: Flood (flooded paddy test), 13 to 15 days; for Sedge, Umbrella plant response rating: Flood, 31 g ai/ha, scale 0 to 100 (0 no effect, 100 complete control)
Summary of the method: as §1

[2] = system: ducksalad (Heteranthera limosa); assay: Test B flooded paddy test; conditions: for Plant response rating, Flood, Ducksalad: 250 g ai/ha, flooded paddy test, visual rating on 0 to 100 scale (0 no effect, 100 complete control) after 13 to 15 days; for Plant response rating, Ducksalad: Flood (flooded paddy test), 13 to 15 days; for Ducksalad plant response rating: Flood, 31 g ai/ha, scale 0 to 100 (0 no effect, 100 complete control)
Summary of the method: as §1

[3] = system: barnyardgrass (Echinochloa crus-galli); assay: Test B flooded paddy test; conditions: for Plant response rating, Flood, Barnyardgrass: 250 g ai/ha, flooded paddy test, visual rating on 0 to 100 scale (0 no effect, 100 complete control) after 13 to 15 days; for Plant response rating, Barnyardgrass: Flood (flooded paddy test), 13 to 15 days; for Barnyardgrass plant response rating: Flood, 31 g ai/ha, scale 0 to 100 (0 no effect, 100 complete control)
Summary of the method: as §1

[4] = system: morningglory (Ipomoea spp.); assay: Test A pre-/postemergence plant response; conditions: for Morningglory plant response rating: visual injury, 0 to 100 scale (0 no effect, 100 complete control), approx. ten days
Summary of the method: (§2)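 Visually rated 0–100 injury (100 = complete control) versus untreated plants, ~10 days in greenhouse. Application pre- (soil spray, loam/sand) and postemergence (2–10 cm, 1–2 leaf stage), same timepoint.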

[5] = system: large crabgrass (Digitaria sanguinalis); assay: Test A pre-/postemergence plant response; conditions: for Crabgrass, Large plant response rating: visual injury, 0 to 100 scale (0 no effect, 100 complete control), approx. ten days
Summary of the method: as §2

[6] = system: barnyardgrass (Echinochloa crus-galli); assay: Test A pre-/postemergence plant response; conditions: for Barnyardgrass plant response rating: visual injury, 0 to 100 scale (0 no effect, 100 complete control), approx. ten days
Summary of the method: as §2

[7] = system: pigweed (Amaranthus retroflexus); assay: Test A pre-/postemergence plant response; conditions: for Pigweed plant response rating: visual injury, 0 to 100 scale (0 no effect, 100 complete control), approx. ten days
Summary of the method: as §2

[8] = system: wheat (Triticum aestivum); assay: Test A pre-/postemergence plant response; conditions: for Wheat plant response rating: visual injury, 0 to 100 scale (0 no effect, 100 complete control), approx. ten days
Summary of the method: as §2

[9] = system: giant foxtail (Setaria faberii); assay: Test A pre-/postemergence plant response; conditions: for Foxtail, Giant plant response rating: visual injury, 0 to 100 scale (0 no effect, 100 complete control), approx. ten days
Summary of the method: as §2

corn (Zea mays) = assay: Test A pre-/postemergence plant response; conditions: for Corn plant response rating: visual injury, 0 to 100 scale (0 no effect, 100 complete control), approx. ten days
Summary of the method: as §2

[10] = system: velvetleaf (Abutilon theophrasti); assay: Test A pre-/postemergence plant response; conditions: for Velvetleaf plant response rating: visual injury, 0 to 100 scale (0 no effect, 100 complete control), approx. ten days
Summary of the method: as §2

[11] = 62 g ai/ha, scale of 0 to 100 where 0 is no effect and 100 is complete control
[12] = 125 g ai/ha, scale 0 to 100, 0 is no effect, 100 is complete control
[13] = Postemergence, 125 g ai/ha, 0 to 100 scale where 0 is no effect and 100 is complete control
[14] = Preemergence, 125 g ai/ha, 0 to 100 scale, 0 = no effect, 100 = complete control
[15] = Preemergence, 500 g ai/ha, 0 to 100 scale, 0 = no effect, 100 = complete control

## O=C1CCCC(O)=C1C(=O)c1cnc(-c2ccc(F)c(F)c2)n(C2CCCCC2)c1=O [Compound 198]
Rice (Oryza sativa)
  Plant response rating, Flood, Rice: 50
  Rice plant response rating: 15
Rice (Oryza sativa); [11]
  Plant response rating, Rice: 20
Rice (Oryza sativa); [12]
  Plant response rating, Rice: 20
[1]
  Plant response rating, Flood, Sedge, Umbrella: 80
  Sedge, Umbrella plant response rating: 20
[1]; [11]
  Plant response rating, Sedge, Umbrella: 20
[1]; [12]
  Plant response rating, Sedge, Umbrella: 80
[2]
  Plant response rating, Flood, Ducksalad: 95
  Ducksalad plant response rating: 40
[2]; [11]
  Plant response rating, Ducksalad: 50
[2]; [12]
  Plant response rating, Ducksalad: 85
[3]
  Plant response rating, Flood, Barnyardgrass: 35
  Barnyardgrass plant response rating: 0
[3]; [11]
  Plant response rating, Barnyardgrass: 0
[3]; [12]
  Plant response rating, Barnyardgrass: 30
[4]; [13]
  Plant response rating, Morningglory: 100
[4]; Postemergence, 500 g ai/ha
  Morningglory plant response rating: 100
[4]; [14]
  Plant response rating, Morningglory: 0
[4]; [15]
  Plant response rating, Morningglory: 30
[5]; [13]
  Plant response rating, Crabgrass, Large: 70
[5]; Postemergence, 500 g ai/ha
  Crabgrass, Large plant response rating: 100
[5]; [14]
  Plant response rating, Crabgrass, Large: 10
[5]; [15]
  Plant response rating, Crabgrass, Large: 90
[6]; [13]
  Plant response rating, Barnyardgrass: 70
[6]; Postemergence, 500 g ai/ha
  Barnyardgrass plant response rating: 100
[6]; [14]
  Plant response rating, Barnyardgrass: 0
[6]; [15]
  Plant response rating, Barnyardgrass: 50
[7]; [13]
  Plant response rating, Pigweed: 90
[7]; Postemergence, 500 g ai/ha
  Pigweed plant response rating: 100
[7]; [14]
  Plant response rating, Pigweed: 10
[7]; [15]
  Plant response rating, Pigweed: 100
[8]; [13]
  Plant response rating, Wheat: 0
[8]; Postemergence, 500 g ai/ha
  Wheat plant response rating: 0
[8]; [14]
  Plant response rating, Wheat: 0
[8]; [15]
  Plant response rating, Wheat: 20
[9]; [13]
  Plant response rating, Foxtail, Giant: 60
[9]; Postemergence, 500 g ai/ha
  Foxtail, Giant plant response rating: 90
[9]; [14]
  Plant response rating, Foxtail, Giant: 70
[9]; [15]
  Plant response rating, Foxtail, Giant: 70
Corn (Zea mays); [13]
  Plant response rating, Corn: 0
Corn (Zea mays); Postemergence, 500 g ai/ha
  Corn plant response rating: 30
Corn (Zea mays); [14]
  Plant response rating, Corn: 0
Corn (Zea mays); [15]
  Plant response rating, Corn: 20
[10]; [13]
  Plant response rating, Velvetleaf: 100
[10]; Postemergence, 500 g ai/ha
  Velvetleaf plant response rating: 100
[10]; [14]
  Plant response rating, Velvetleaf: 0
[10]; [15]
  Plant response rating, Velvetleaf: 80

## CCc1ccc(-n2c(-c3cccc(F)c3)ncc(C(=O)C3=C(O)CCCC3=O)c2=O)cc1 [Compound 204]
Rice (Oryza sativa)
  Plant response rating, Flood, Rice: 60
  Rice plant response rating: 0
Rice (Oryza sativa); [11]
  Plant response rating, Rice: 0
Rice (Oryza sativa); [12]
  Plant response rating, Rice: 0
[1]
  Plant response rating, Flood, Sedge, Umbrella: 95
  Sedge, Umbrella plant response rating: 70
[1]; [11]
  Plant response rating, Sedge, Umbrella: 75
[1]; [12]
  Plant response rating, Sedge, Umbrella: 90
[2]
  Plant response rating, Flood, Ducksalad: 100
  Ducksalad plant response rating: 50
[2]; [11]
  Plant response rating, Ducksalad: 70
[2]; [12]
  Plant response rating, Ducksalad: 90
[3]
  Plant response rating, Flood, Barnyardgrass: 60
  Barnyardgrass plant response rating: 10
[3]; [11]
  Plant response rating, Barnyardgrass: 15
[3]; [12]
  Plant response rating, Barnyardgrass: 25
[4]; [13]
  Plant response rating, Morningglory: 30
[4]; Postemergence, 500 g ai/ha
  Morningglory plant response rating: 100
[4]; [14]
  Plant response rating, Morningglory: 0
[4]; [15]
  Plant response rating, Morningglory: 80
[5]; [13]
  Plant response rating, Crabgrass, Large: 60
[5]; Postemergence, 500 g ai/ha
  Crabgrass, Large plant response rating: 100
[5]; [14]
  Plant response rating, Crabgrass, Large: 40
[5]; [15]
  Plant response rating, Crabgrass, Large: 100
[6]; [13]
  Plant response rating, Barnyardgrass: 100
[6]; Postemergence, 500 g ai/ha
  Barnyardgrass plant response rating: 100
[6]; [14]
  Plant response rating, Barnyardgrass: 30
[6]; [15]
  Plant response rating, Barnyardgrass: 80
[7]; [13]
  Plant response rating, Pigweed: 100
[7]; Postemergence, 500 g ai/ha
  Pigweed plant response rating: 100
[7]; [14]
  Plant response rating, Pigweed: 100
[7]; [15]
  Plant response rating, Pigweed: 100
[8]; [13]
  Plant response rating, Wheat: 0
[8]; Postemergence, 500 g ai/ha
  Wheat plant response rating: 40
[8]; [14]
  Plant response rating, Wheat: 20
[8]; [15]
  Plant response rating, Wheat: 40
[9]; [13]
  Plant response rating, Foxtail, Giant: 30
[9]; Postemergence, 500 g ai/ha
  Foxtail, Giant plant response rating: 100
[9]; [14]
  Plant response rating, Foxtail, Giant: 20
[9]; [15]
  Plant response rating, Foxtail, Giant: 90
Corn (Zea mays); [13]
  Plant response rating, Corn: 0
Corn (Zea mays); Postemergence, 500 g ai/ha
  Corn plant response rating: 10
Corn (Zea mays); [14]
  Plant response rating, Corn: 20
Corn (Zea mays); [15]
  Plant response rating, Corn: 20
[10]; [13]
  Plant response rating, Velvetleaf: 100
[10]; Postemergence, 500 g ai/ha
  Velvetleaf plant response rating: 100
[10]; [14]
  Plant response rating, Velvetleaf: 50
[10]; [15]
  Plant response rating, Velvetleaf: 90
